According to ChEMBL document CHEMBL1148718, “Structure-activity relationship study on N-(1,2,3,4-tetrahydronaphthalen-1-yl)-4-aryl-1-piperazinehexanamides, a class of 5-HT7 receptor agents. 2” (J Med Chem, 2007):

How the values were obtained:
[1] = biological target: 5-hydroxytryptamine receptor 7 (Rattus norvegicus, UniProt P32305); assay: Displacement of [3H]LSD from rat recombinant 5HT7 receptor expressed in HEK293 cells; format: cell-based
[2] = biological target: T1, D(2) dopamine receptor (Homo sapiens, UniProt P14416); assay: Displacement of [3H]spiroperidol from human recombinant Dopamine D2 long receptor
[3] = biological target: T1, D(2) dopamine receptor; assay: Displacement of [3H]spiroperidol from human recombinant Dopamine D2 long receptor […]
[4] = biological target: T2, 5-hydroxytryptamine receptor 1A (Homo sapiens, UniProt P08908); assay: Displacement of [3H]8-OH-DPAT from human recombinant 5HT1A receptor expressed in HEK293 cells; format: cell-based
T2 sequence (P08908 whole entry): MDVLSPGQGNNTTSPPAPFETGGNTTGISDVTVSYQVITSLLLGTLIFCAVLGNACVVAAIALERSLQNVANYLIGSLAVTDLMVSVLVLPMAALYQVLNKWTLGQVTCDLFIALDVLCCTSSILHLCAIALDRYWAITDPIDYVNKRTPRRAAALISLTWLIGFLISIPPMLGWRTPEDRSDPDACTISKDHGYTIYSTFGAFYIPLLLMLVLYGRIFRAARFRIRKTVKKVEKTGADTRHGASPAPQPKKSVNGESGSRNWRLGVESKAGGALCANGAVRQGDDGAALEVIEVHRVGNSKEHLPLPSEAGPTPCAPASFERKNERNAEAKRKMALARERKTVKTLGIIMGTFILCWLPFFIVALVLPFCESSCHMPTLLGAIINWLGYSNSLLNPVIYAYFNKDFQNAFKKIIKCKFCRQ

[5] = biological target: 5-hydroxytryptamine receptor 2A (Rattus norvegicus, UniProt P14842); assay: Displacement of [3H]ketanserin from 5HT2A receptor in Sprague-Dawley cortex membrane; format: cell membranes
[6] = biological target: 5-hydroxytryptamine receptor 7 (Cavia porcellus) (UniProt P50407); assay: (§1) Agonist activity at 5HT7 receptor in guinea pig ileum assessed as relaxation of substance P-induced contraction; format: functional, tissue-based
[7] = biological target: T3, 5-hydroxytryptamine receptor 7 (Cavia porcellus, UniProt P50407); assay: as §1; format: functional, tissue-based
[8] = Selectivity for rat 5HT7 over human 5HT1A
[9] = Ratio of Ki for human Dopamine D2L receptor to Ki for rat 5HT7 receptor
[10] = biological target: T3, 5-hydroxytryptamine receptor 7; assay: Antagonist activity at 5HT7 receptor in guinea pig ileum assessed as effect on substance P-induced contraction; format: functional, tissue-based; conditions: read-out: pA2 (converted)
[11] = biological target: 5-hydroxytryptamine receptor 2A (Rattus norvegicus) (UniProt P14842); assay: Displacement of [3H]ketanserin from 5HT2A receptor in Sprague-Dawley cortex membrane at >4000 uM; format: cell membranes
[12] = biological target: T3, 5-hydroxytryptamine receptor 7; assay: Antagonist activity at 5HT7 receptor in guinea pig ileum assessed as effect on 3-(2-aminoethyl)-1H-indole-5-carboxamide mediated relaxation of substance P-induced contraction; format: functional, tissue-based; conditions: read-out: pA2 (converted)
[13] = biological target: T3, 5-hydroxytryptamine receptor 7; assay: Antagonist activity at 5HT7 receptor in guinea pig ileum assessed as effect on 6-(4-phenylpiperazin-1-yl)-N-(1,2,3,4-tetrahydronaphthalen-1-yl)hexanamide mediated relaxation of substance P-induced contraction; format: functional, tissue-based; conditions: read-out: pA2 (converted)
[14] = biological target: T3, 5-hydroxytryptamine receptor 7; assay: Antagonist activity at 5HT7 receptor in guinea pig ileum assessed as effect on 6-(4-(2-nitrophenyl)piperazin-1-yl)-N-(1,2,3,4-tetrahydronaphthalen-1-yl)hexanamide mediated relaxation of substance P-induced contraction; format: functional, tissue-based; conditions: read-out: pA2 (converted)
[15] = biological target: T3, 5-hydroxytryptamine receptor 7; assay: Antagonist activity at 5HT7 receptor in guinea pig ileum assessed as effect on 6-(4-(2-chlorophenyl)piperazine-1-yl)-N-(1,2,3,4-tetrahydronaphthalen-1-yl)hexanamide mediated relaxation of substance P-induced contraction; format: functional, tissue-based; conditions: read-out: pA2 (converted)
[16] = biological target: T3, 5-hydroxytryptamine receptor 7; assay: Antagonist activity at 5HT7 receptor in guinea pig ileum assessed as effect on 4-[2-(1-methylethyl)phenyl]-N-(1,2,3,4-tetrahydronaphthalen-1-yl)-1-piperazine hexanamide mediated relaxation of substance P-induced contraction; format: functional, tissue-based; conditions: read-out: pA2 (converted)
[17] = biological target: T3, 5-hydroxytryptamine receptor 7; assay: Antagonist activity at 5HT7 receptor in guinea pig ileum assessed as effect on 4-(2-diphenyl)-N-(1,2,3,4-tetrahydronaphthalen-1-yl)-1-piperazine hexanamide mediated relaxation of substance P-induced contraction; format: functional, tissue-based; conditions: read-out: pA2 (converted)
[18] = biological target: T3, 5-hydroxytryptamine receptor 7; assay: Antagonist activity at 5HT7 receptor in guinea pig ileum assessed as effect on 4-(2-dimethylaminophenyl)-N-(1,2,3,4-tetrahydronaphthalen-1-yl)-1-piperazine hexanamide mediated relaxation of substance P-induced contraction; format: functional, tissue-based; conditions: read-out: pA2 (converted)

T3 sequence (P50407 whole entry): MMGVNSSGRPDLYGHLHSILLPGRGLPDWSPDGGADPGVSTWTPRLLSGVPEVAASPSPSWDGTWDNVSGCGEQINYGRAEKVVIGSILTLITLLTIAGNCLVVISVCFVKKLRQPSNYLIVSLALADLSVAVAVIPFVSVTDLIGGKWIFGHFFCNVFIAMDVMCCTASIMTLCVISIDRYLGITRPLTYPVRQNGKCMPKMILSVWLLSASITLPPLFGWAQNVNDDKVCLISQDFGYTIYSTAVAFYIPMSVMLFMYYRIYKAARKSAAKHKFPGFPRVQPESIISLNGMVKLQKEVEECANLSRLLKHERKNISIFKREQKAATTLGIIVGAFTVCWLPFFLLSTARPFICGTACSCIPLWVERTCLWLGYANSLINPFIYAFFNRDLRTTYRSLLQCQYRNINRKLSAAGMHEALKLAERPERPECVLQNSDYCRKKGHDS
Chain of 5-hydroxytryptamine receptor 7 (Cavia porcellus) (P50407 whole entry): as above
Chain of 5-hydroxytryptamine receptor 2A (P14842 whole entry): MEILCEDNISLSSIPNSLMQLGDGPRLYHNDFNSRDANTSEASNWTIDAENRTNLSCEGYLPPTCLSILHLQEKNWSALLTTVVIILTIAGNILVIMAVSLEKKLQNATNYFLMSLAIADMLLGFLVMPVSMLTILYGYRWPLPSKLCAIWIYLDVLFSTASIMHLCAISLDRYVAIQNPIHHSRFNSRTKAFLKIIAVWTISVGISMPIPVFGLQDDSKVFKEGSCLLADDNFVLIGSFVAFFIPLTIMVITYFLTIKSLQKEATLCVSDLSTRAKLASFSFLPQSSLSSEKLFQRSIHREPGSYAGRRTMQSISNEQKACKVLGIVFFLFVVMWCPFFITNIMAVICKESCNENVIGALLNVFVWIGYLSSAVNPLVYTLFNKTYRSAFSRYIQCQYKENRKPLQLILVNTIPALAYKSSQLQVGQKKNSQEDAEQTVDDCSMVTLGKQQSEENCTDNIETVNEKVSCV
Chain of 5-hydroxytryptamine receptor 7 (Rattus norvegicus, UniProt P32305) (P32305 whole entry): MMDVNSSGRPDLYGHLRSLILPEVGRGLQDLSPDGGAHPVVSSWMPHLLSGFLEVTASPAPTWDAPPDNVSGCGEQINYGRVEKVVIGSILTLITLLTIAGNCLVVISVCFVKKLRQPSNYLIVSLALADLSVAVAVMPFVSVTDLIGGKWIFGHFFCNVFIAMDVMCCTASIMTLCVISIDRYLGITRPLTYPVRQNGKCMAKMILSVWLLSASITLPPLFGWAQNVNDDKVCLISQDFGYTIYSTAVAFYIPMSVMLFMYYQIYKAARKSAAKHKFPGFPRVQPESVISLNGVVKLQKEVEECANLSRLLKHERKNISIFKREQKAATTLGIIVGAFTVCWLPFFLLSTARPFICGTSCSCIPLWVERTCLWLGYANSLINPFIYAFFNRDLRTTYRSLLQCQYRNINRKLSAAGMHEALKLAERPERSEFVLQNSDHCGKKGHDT
T1 sequence (P14416 whole entry): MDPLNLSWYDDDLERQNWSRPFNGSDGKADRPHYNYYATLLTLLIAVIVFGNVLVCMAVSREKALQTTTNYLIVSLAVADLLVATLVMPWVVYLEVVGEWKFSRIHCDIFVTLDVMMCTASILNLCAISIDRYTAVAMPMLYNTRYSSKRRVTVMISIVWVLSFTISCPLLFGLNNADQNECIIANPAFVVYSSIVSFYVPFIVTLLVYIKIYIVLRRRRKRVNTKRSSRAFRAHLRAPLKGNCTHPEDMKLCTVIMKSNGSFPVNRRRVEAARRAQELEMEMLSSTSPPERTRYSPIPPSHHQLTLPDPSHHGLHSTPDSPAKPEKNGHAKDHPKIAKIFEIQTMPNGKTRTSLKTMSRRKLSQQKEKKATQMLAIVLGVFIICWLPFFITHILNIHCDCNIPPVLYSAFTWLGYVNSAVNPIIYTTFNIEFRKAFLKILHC
Chain of 5-hydroxytryptamine receptor 2A (Rattus norvegicus) (P14842 whole entry): as the sequence (P14842 whole entry) above

SMILES | Ki [1] [nM] | Ki [2] [nM] | Ki [4] [nM] | Ki [5] [nM] | other results
CS(=O)(=O)Nc1ccccc1N1CCN(CCCCCC(=O)NC2CCCc3ccccc32)CC1 (stereo not given) | 4250 | > 1000 |  |  | inhibition [3]: 28%
O=C(CCCCCN1CCN(c2ccccn2)CC1)NC1CCCc2ccccc21 (stereo not given) | 278 | > 1000 | 36.4 | 535 | inhibition [3]: 15%
O=C(CCCCCN1CCN(c2cccc[n+]2[O-])CC1)NC1CCCc2ccccc21 (stereo not given) | 8030 |  | 194 |  | 
NCCc1c[nH]c2ccc(C(N)=O)cc12 | 0.5 |  |  |  | %max [6]: 100%; EC50 [7]: 630 nM
CC(C)(C)c1ccccc1N1CCN(CCCCCC(=O)NC2CCCc3ccccc32)CC1 (stereo not given) | 538 | > 1000 | 1200 |  | inhibition [3]: 38%
O=C(CCCCCN1CCN(c2ccccc2)CC1)NC1CCCc2ccccc21 (stereo not given) |  | 1000 |  |  | %max [6]: 40%; EC50 [7]: 8000 nM
N#Cc1ccccc1N1CCN(CCCCCC(=O)NC2CCCc3ccccc32)CC1 (stereo not given) |  | 265 |  |  | 
O=C(CCCCCN1CCN(c2ccccc2-c2ccccc2)CC1)NC1CCCc2ccccc21 (stereo not given) | 0.13 | 224 | 60.9 | 1460 | %max [6]: 74%; EC50 [7]: 1770 nM; Selectivity ratio [8]: > 100; Ratio Ki [9]: 1720
O=C(CCCCCN1CCN(c2ccccc2F)CC1)NC1CCCc2ccccc21 (stereo not given) | 131 | 292 | 29.2 | 194 | 
O=C(CCCCCN1CCN(c2ccccc2O)CC1)NC1CCCc2ccccc21 (stereo not given) |  | 987 |  |  | 
Nc1ccccc1N1CCN(CCCCCC(=O)NC2CCCc3ccccc32)CC1 (stereo not given) | 8180 |  | 415 |  | 
CC(=O)Nc1ccccc1N1CCN(CCCCCC(=O)NC2CCCc3ccccc32)CC1 (stereo not given) | 338 | > 1000 | 2500 | 3520 | inhibition [3]: 35%
CS(=O)(=O)c1ccccc1N1CCN(CCCCCC(=O)NC2CCCc3ccccc32)CC1 (stereo not given) |  | > 1000 |  |  | inhibition [11]: 38%; inhibition [3]: 32%
O=C(CCCCCN1CCN(c2ccccc2[N+](=O)[O-])CC1)NC1CCCc2ccccc21 (stereo not given) |  | 681 |  |  | %max [6]: 24%; EC50 [7]: 10000 nM
CCc1ccccc1N1CCN(CCCCCC(=O)NC2CCCc3ccccc32)CC1 (stereo not given) | 7.1 | 173 | 79.2 | 3370 | 
CC1CCN(CC[C@H]2CCCN2S(=O)(=O)c2cccc(O)c2)CC1 |  |  |  |  | Kb [12]: 33.1 nM; Kb [13]: 7.94 nM; Kb [14]: 6.31 nM; Kb [15]: 3.98 nM; Kb [16]: 8.91 nM; Kb [17]: 14.5 nM; Kb [18]: 12.6 nM
NC(=O)c1ccccc1N1CCN(CCCCCC(=O)NC2CCCc3ccccc32)CC1 (stereo not given) |  | > 1000 |  |  | inhibition [11]: 9%; inhibition [3]: 32%

The next lines start with results.

Ki [1] [nM] | Ki [2] [nM] | Ki [4] [nM] | Ki [5] [nM] | SMILES | other results
1.1 | 15 | 167 | 4820 | CC(C)c1ccccc1N1CCN(CCCCCC(=O)NC2CCCc3ccccc32)CC1 (stereo not given) | %max [6]: 83%; EC50 [7]: 900 nM; Selectivity ratio [8]: > 100
49.6 | 123 | 168 | 3190 | CCCc1ccccc1N1CCN(CCCCCC(=O)NC2CCCc3ccccc32)CC1 (stereo not given) | 
 | 51 |  |  | O=C(CCCCCN1CCN(c2ccccc2Cl)CC1)NC1CCCc2ccccc21 (stereo not given) | %max [6]: 13%; EC50 [7]: 17000 nM
 | 68 |  |  | CC(=O)c1ccccc1N1CCN(CCCCCC(=O)NC2CCCc3ccccc32)CC1 (stereo not given) | 
0.9 | 32 | 112 | 559 | CN(C)c1ccccc1N1CCN(CCCCCC(=O)NC2CCCc3ccccc32)CC1 (stereo not given) | %max [6]: 100%; EC50 [7]: 1170 nM; Selectivity ratio [8]: > 100
2810 | 60 | 60 |  | CCCCc1ccccc1N1CCN(CCCCCC(=O)NC2CCCc3ccccc32)CC1 (stereo not given) | 
 | 7.3 |  |  | CSc1ccccc1N1CCN(CCCCCC(=O)NC2CCCc3ccccc32)CC1 (stereo not given) | 
25.4 | 107 | 133 | 1590 | CNc1ccccc1N1CCN(CCCCCC(=O)NC2CCCc3ccccc32)CC1 (stereo not given) | %max [6]: 0%; Kb [10]: 20 nM
 | 26.4 |  |  | COc1ccccc1N1CCN(CCCCCC(=O)NC2CCCc3ccccc32)CC1 (stereo not given) | 
 | 143 |  |  | Cc1ccccc1N1CCN(CCCCCC(=O)NC2CCCc3ccccc32)CC1 (stereo not given) | 
